According to PMC9688225, “α-Lipoic Acid Derivatives as Allosteric Modulators for Targeting AMPA-Type Glutamate Receptors’ Gating Modules” (Cells, 2022):
pIC50: −log10 of the molar value. Where two headings read alike, the source gives them in different places.

Tests used:
Format in all cases: cell-based
[1] = molecular target: T1, GluA2/3 AMPA receptor subunits (flip isoform) (Homo sapiens, UniProt P42262+P42263); assay: Whole-cell patch-clamp electrophysiology, heteromeric GluA2/3 expressed in HEK293 cells; details: for Amplitude (glutamate + compound): 10 mM glutamate + 12 µM compound, −60 mV, pH 7.4, 22 °C, mean ± SEM; for Amplitude (glutamate + compound) / A/AI (current with glutamate alone / current with glutamate + compound): n = 10; for A/AI (current with glutamate alone / current with glutamate + compound): 10 mM glutamate, 12 µM compound; for IC50 / pIC50: Hill fit; for IC50: read-out: Log IC50 (converted); for t deact (weighted deactivation time constant) / t des (weighted desensitization time constant): glutamate + 12 µM compound; for t deact (weighted deactivation time constant): glutamate alone 2.4±0.3 ms; for t des (weighted desensitization time constant): glutamate alone 2.7±0.3 ms; for pIC50: whole-cell normalized peak amplitude, unit printed in the text, not in Table S6, read-out: IC50
T1 construct: expressed in transfected cells; host or cells: HEK293
Protocol: (§1) Up to 20 μg of high-copy plasmid DNA was prepared using the QIAGEN Plasmid Mini Kit, the tubes were then centrifuged to extract the supernatant containing the plasmid DNA, ethanol was used to wash the DNA pellet, then centrifuged again and the supernatant was carefully removed as to not disturb the pellet, finally, the pellet was air-dried, and the DNA was re-dissolved in a suitable volume of buffer, (our prior study detailed the whole DNA preparation data). The flip isoform was used in all AMPAR subunits used in this investigation. AMPAR subunits were subcloned in pRK and expressed in the human embryonic kidney cells (HEK293) (The HEK293 cell line was obtained from Sigma, Schnelldorf, Germany). IPA (Integrated Patch Amplifier) recorded HEK293 cells 36–48 h after transfection using the patch-clamp method (Sutter Instruments, Novato, CA, USA). A high-speed piezo solution switcher was installed on a double-barreled glass (theta tube) to provide solutions fast, isolate receptor responses from any network influences, and preserve, as much as possible, the postsynaptic protein machinery. Thus, inhibition was measured by comparing the current recorded when glutamate alone was administered to the current observed when glutamate plus the compound of interest was delivered to the same cell. Before administering the α-LA compounds, experiments were conducted to determine the appropriate concentration to be delivered to the cells without harming them. Dichloromethane (12 µM) effect on GluA1 and GluA2 subunits was tested to ensure that it had no effect on AMPA receptor currents (Figure S8). The effect of α-LA compounds on AMPA subunits plateaued at a concentration of 12 µM because LA inhibits AMPA receptors at low concentrations and continues to inhibit them when LA concentrations are increased by 2 µM each interval, as shown in Figure S1. The concentration increased by 2 µM each time to ensure that no cells were harmed. The cells were washed for 20 s between α-LA derivatives (12 µM), and 10 mM glutamate was supplied alone after each α-LA compound to ensure cell health. Data analysis was carried out using Igor Pro7 (Wave Metrics, inc). For both desensitization (τw des) and deactivation rates (τw deact), an exponential fit to the current decline was obtained at 95% of peak to baseline current. The weighted tau (τw) was calculated as τw = (τf × af) + (τs × as), where af and as are the amplitudes of the fast (τf) and slow (τs) exponential components, respectively. Our study detailed the experimental data set.
(§2) Data are presented as mean ± standard error of the mean (SEM). The number of samples (n = 10) refers to the total number of tested HEK293 cells. Statistical differences between the groups and the wild type were examined by One Way Analysis of Variance (ANOVA), with values of p < 0.05 being considered to indicate statistical significance: (*) p < 0.05, (**) p < 0.01, (***) p < 0.001, ns, not significant. Concentration-response relationships were fitted as composite curves using GraphPad Prism version 6.01 (GraphPad Software, San Diego, CA, USA) to the Hill equation. All results were representative of at least three independent experiments.
(§3) Figure 2 Suppression of AMPA receptor currents by α-LA compounds. Graphs (a,c,e,g) present AMPA receptor currents (pA) before and after the administration of α-LA derivatives on GluA1, GluA1/2, GluA2, and GluA2/3 subunits. While (b,d,f,h) present the ratio A/AI, where A represents the current caused by 10 mM glutamate alone and AI represents the current induced by glutamate + α-LA (12 µM). The whole-cell current was measured at −60 mV, pH 7.4, and 22 °C. A one way analysis of variance (ANOVA) was performed for comparison: *** p < 0.001; ns, not significant. Ten cells were investigated for each LA compound. All values are shown as mean SEM.
(§4) Figure 3 The potency of LA compounds against AMPA receptor subunits. […]

[2] = molecular target: T2, GluA1/2 AMPA receptor subunits (flip isoform) (Homo sapiens, UniProt P42261+P42262); assay: Whole-cell patch-clamp electrophysiology, heteromeric GluA1/2 expressed in HEK293 cells; details: for Amplitude (glutamate + compound): 10 mM glutamate + 12 µM compound, −60 mV, pH 7.4, 22 °C, mean ± SEM; for Amplitude (glutamate + compound) / A/AI (current with glutamate alone / current with glutamate + compound): n = 10; for A/AI (current with glutamate alone / current with glutamate + compound): 10 mM glutamate, 12 µM compound; for IC50 / pIC50: Hill fit; for IC50: read-out: Log IC50 (converted); for t deact (weighted deactivation time constant) / t des (weighted desensitization time constant): glutamate + 12 µM compound; for t deact (weighted deactivation time constant): glutamate alone 2.5±0.3 ms; for t des (weighted desensitization time constant): glutamate alone 5.3±0.4 ms; for pIC50: whole-cell normalized peak amplitude, unit printed in the text, not in Table S6, read-out: IC50
T2 construct: expressed in transfected cells; host or cells: HEK293
Protocol: as §1, §2, §3, §4

[3] = molecular target: T3, GluA2 AMPA receptor subunit (flip isoform) (Homo sapiens, UniProt P42262); assay: Whole-cell patch-clamp electrophysiology, homomeric GluA2 expressed in HEK293 cells; details: for Amplitude (glutamate + compound): 10 mM glutamate + 12 µM compound, −60 mV, pH 7.4, 22 °C, mean ± SEM; for Amplitude (glutamate + compound) / A/AI (current with glutamate alone / current with glutamate + compound): n = 10; for A/AI (current with glutamate alone / current with glutamate + compound): 10 mM glutamate, 12 µM compound; for IC50 / pIC50: Hill fit; for IC50: read-out: Log IC50 (converted); for t deact (weighted deactivation time constant) / t des (weighted desensitization time constant): glutamate + 12 µM compound; for t deact (weighted deactivation time constant): glutamate alone 2.4±0.1 ms; for t des (weighted desensitization time constant): glutamate alone 2.6±0.1 ms; for pIC50: whole-cell normalized peak amplitude, unit printed in the text, not in Table S6, read-out: IC50
T3 construct: expressed in transfected cells; host or cells: HEK293
Protocol: as §1, §2, §3, §4

[4] = molecular target: T4, GluA1 AMPA receptor subunit (flip isoform) (Homo sapiens, UniProt P42261); assay: Whole-cell patch-clamp electrophysiology, homomeric GluA1 expressed in HEK293 cells; details: for Amplitude (glutamate + compound): 10 mM glutamate + 12 µM compound, −60 mV, pH 7.4, 22 °C, mean ± SEM; for Amplitude (glutamate + compound) / A/AI (current with glutamate alone / current with glutamate + compound): n = 10; for A/AI (current with glutamate alone / current with glutamate + compound): 10 mM glutamate, 12 µM compound; for IC50 / pIC50: Hill fit; for IC50: read-out: Log IC50 (converted); for t deact (weighted deactivation time constant) / t des (weighted desensitization time constant): glutamate + 12 µM compound; for t deact (weighted deactivation time constant): glutamate alone 2.2±0.1 ms; for t des (weighted desensitization time constant): glutamate alone 2.3±0.1 ms; for pIC50: whole-cell normalized peak amplitude, unit printed in the text, not in Table S6, read-out: IC50
T4 construct: expressed in transfected cells; host or cells: HEK293
Protocol: as §1, §2, §3, §4

[5] = test system: AMPA receptor subunits (GluA1, GluA2, GluA1/2, GluA2/3); assay: Whole-cell patch-clamp electrophysiology, summary over the AMPA receptor subunits in HEK293 cells
Protocol: as §1, §2
The levels of inhibition of α-LA and its derivatives attracted our attention to assessing the potency of the compounds in a concentration-dependent manner. […] The concentration−inhibition curves were produced by administering glutamate alone at a concentration of 10 mM, followed by glutamate + α-LA derivatives at varying concentrations (in μM) for every recording point. Afterward, the cells were normalized back by administering glutamate alone. Since the glutamate concentration in the synaptic cleft constantly saturates the receptors, driving the response to a near maximum level, variability occurs because the maximum level changes. […]

[6] = all AMPA receptor subunits, 12 µM compound

T3 sequence (P42262 25-883 isoform P42262-2 limits assumed): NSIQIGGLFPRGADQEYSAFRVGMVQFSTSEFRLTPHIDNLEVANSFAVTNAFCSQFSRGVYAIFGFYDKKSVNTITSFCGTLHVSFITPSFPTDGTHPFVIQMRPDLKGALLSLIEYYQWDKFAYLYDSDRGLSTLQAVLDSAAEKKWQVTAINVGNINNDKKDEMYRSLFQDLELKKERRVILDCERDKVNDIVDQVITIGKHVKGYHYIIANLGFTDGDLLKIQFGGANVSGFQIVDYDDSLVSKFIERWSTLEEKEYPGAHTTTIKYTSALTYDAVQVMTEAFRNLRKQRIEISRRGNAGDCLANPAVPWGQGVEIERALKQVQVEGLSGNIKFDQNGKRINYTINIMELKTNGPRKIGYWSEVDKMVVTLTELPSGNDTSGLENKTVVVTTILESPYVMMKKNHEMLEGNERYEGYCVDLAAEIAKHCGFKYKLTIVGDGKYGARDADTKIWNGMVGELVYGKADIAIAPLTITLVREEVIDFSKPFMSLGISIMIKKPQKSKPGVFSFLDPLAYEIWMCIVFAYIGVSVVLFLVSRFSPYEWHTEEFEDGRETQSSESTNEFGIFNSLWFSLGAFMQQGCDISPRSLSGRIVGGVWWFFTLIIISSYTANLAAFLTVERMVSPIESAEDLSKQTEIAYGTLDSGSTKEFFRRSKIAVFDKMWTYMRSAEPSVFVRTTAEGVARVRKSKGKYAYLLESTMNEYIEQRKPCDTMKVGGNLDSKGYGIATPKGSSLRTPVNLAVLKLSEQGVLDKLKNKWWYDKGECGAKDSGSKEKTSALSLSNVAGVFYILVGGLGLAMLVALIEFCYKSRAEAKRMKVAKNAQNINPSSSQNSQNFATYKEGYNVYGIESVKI
T1 sequence (P42262 25-883 isoform P42262-2 limits assumed): as above
T1 sequence (P42263 29-894 isoform P42263-2 limits assumed): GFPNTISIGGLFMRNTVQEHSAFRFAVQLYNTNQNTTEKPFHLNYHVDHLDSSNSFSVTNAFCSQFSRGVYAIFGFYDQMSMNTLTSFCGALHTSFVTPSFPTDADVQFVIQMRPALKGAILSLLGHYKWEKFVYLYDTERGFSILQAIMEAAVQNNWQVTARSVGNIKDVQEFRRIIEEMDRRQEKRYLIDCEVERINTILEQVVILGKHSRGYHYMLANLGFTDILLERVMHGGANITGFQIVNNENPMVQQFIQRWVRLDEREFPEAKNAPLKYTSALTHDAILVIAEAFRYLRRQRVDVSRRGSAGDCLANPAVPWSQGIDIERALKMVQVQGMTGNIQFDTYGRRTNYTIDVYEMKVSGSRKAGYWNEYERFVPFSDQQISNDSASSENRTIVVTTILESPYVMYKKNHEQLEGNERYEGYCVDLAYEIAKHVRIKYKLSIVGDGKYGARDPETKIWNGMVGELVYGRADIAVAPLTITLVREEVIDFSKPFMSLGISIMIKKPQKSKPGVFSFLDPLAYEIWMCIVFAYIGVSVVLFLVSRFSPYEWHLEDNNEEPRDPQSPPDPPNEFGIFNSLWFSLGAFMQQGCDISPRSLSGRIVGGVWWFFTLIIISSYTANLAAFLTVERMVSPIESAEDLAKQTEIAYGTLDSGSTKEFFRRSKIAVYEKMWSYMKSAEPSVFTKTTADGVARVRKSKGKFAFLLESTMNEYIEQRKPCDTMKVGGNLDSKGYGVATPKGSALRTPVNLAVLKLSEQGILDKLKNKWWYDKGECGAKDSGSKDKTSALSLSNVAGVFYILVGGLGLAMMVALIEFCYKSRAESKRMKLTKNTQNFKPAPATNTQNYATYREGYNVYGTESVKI
T2 sequence (P42261 19-906 isoform P42261-2 limits assumed): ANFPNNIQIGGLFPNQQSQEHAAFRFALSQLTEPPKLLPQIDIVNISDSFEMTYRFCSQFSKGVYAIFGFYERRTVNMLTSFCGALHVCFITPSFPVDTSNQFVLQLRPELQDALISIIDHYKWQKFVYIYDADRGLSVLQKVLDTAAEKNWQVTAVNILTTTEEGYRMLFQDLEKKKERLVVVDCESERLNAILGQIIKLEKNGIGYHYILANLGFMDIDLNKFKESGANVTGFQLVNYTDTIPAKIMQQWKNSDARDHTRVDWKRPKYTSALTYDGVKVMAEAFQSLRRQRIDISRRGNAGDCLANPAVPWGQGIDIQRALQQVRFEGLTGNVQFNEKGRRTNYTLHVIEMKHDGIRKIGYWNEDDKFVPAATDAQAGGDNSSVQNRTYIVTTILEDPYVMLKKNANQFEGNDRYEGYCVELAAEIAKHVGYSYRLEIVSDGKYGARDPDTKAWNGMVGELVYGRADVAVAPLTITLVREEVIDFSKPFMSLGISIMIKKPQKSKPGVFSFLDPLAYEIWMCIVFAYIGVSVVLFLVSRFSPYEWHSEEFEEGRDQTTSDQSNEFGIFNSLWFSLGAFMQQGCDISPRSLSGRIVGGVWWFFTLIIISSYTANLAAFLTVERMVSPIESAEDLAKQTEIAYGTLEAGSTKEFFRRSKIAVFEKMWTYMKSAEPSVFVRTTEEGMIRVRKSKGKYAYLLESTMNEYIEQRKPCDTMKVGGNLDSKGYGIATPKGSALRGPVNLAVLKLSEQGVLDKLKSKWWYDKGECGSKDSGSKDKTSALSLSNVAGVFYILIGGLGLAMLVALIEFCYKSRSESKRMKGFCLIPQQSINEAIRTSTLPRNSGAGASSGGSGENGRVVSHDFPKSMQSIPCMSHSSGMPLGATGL
T2 sequence (P42262 25-883 isoform P42262-2 limits assumed): as the sequence (P42262 25-883 isoform P42262-2 limits assumed) above
T4 sequence (P42261 19-906 isoform P42261-2 limits assumed): as the sequence (P42261 19-906 isoform P42261-2 limits assumed) above

| SMILES | Amplitude (glutamate + compound) [1] [pA] | A/AI (current with glutamate alone / current with glutamate + compound) [1] | IC50 [1] [µM] | t deact (weighted deactivation time constant) [1] [ms] | t des (weighted desensitization time constant) [1] [ms] | pIC50 [1] | Amplitude (glutamate + compound) [2] [pA] | A/AI (current with glutamate alone / current with glutamate + compound) [2] | IC50 [2] [µM] | t deact (weighted deactivation time constant) [2] [ms] | t des (weighted desensitization time constant) [2] [ms] | pIC50 [2] | Amplitude (glutamate + compound) [3] [pA] | A/AI (current with glutamate alone / current with glutamate + compound) [3] | IC50 [3] [µM] | t deact (weighted deactivation time constant) [3] [ms] | t des (weighted desensitization time constant) [3] [ms] | pIC50 [3] | Amplitude (glutamate + compound) [4] [pA] | A/AI (current with glutamate alone / current with glutamate + compound) [4] | also measured |
| --- | --- | --- | --- | --- | --- | --- | --- | --- | --- | --- | --- | --- | --- | --- | --- | --- | --- | --- | --- | --- | --- |
| O=C(CCCCC1CCSS1)OCCCCCCO (stereo not drawn) [LA4, 1-Hydroxy-6-Lipoester] | 72±15.0 | 7.58±0.7 | 4.79 | 6.9 ± 0.5 | 2.0 ± 0.1 | 5.32 | 87±13.0 | 7.70±0.7 | 4.37 | 7.4 ± 0.4 | 3.7 ± 0.3 | 5.36 | 166±28 | 7.65±0.5 | 4.47 | 7.1 ± 0.4 | 1.9 ± 0.07 | 5.35 | 121±18 | 7.79±0.5 | IC50 [4]: 4.17 µM; t deact (weighted deactivation time constant) [4]: 7.5 ± 0.3 ms; t des (weighted desensitization time constant) [4]: 1.8 ± 0.1 ms; pIC50 [4]: 5.38; decrease in the peak current of the AMPARs [5, 6]: roughly 8 fold; increase of the rate of AMPA receptor deactivation (τw deact) [5, 6]: roughly 3 fold |
| O=C(CCCCC1CCSS1)OCCCO (stereo not drawn) [LA1, 1-Hydroxy-3-Lipo Ester] | 52±8.0 | 10.14±1.0 | 3.8 | 10.1 ± 0.6 | 1.2 ± 0.09 | 5.42 | 60±9.0 | 10.32±1.0 | 3.55 | 10.1 ± 0.7 | 2.8 ± 0.3 | 5.45 | 124±19.0 | 10.22±0.8 | 3.63 | 10.4 ± 0.9 | 1.0 ± 0.06 | 5.44 | 89±12.0 | 10.43±0.7 | IC50 [4]: 3.47 µM; t deact (weighted deactivation time constant) [4]: 9.5 ± 0.5 ms; t des (weighted desensitization time constant) [4]: 0.8 ± 0.1 ms; pIC50 [4]: 5.46; decrease in the peak current of the AMPARs [5, 6]: about 10 fold; increase of the rate of AMPA receptor deactivation (τw deact) [5, 6]: about 4 fold; reduction in the rate of desensitization (τw des) [5, 6]: 3–4 fold; pIC50 ([5]; over GluA1, GluA1/2, GluA2, GluA2/3, read-out: approximate IC50 against AMPA receptor subunits): 5.42 to 5.46 |
